Test results: publication PMC7826463, “Pamiparib dose escalation in Chinese patients with non‐mucinous high‐grade ovarian cancer or advanced triple‐negative breast cancer” (Cancer Medicine, 2020)
Values joined by “and” are separate entries in the source; they are usually repeats but may differ in a detail not shown here. Equal entries are not always repeated. “Also recorded” adds a separate entry of the source.

System: Chinese patients with advanced HGOC or TNBC
Assay: Safety/tolerability (adverse events per NCI-CTCAE v4.03, DLTs) in phase 1 dose escalation (NCT03333915)
Format: in vivo
Source text: This phase 1/2, open‐label, multicenter study assessed the safety and antitumor activity of pamiparib in Chinese patients ≥18 years with advanced solid tumors whose disease progressed despite standard therapy or for which there is no standard therapy. Phase 1 was a dose‐escalation study, with a 3 + 3 design, that evaluated the single‐agent safety/tolerability, pharmacokinetic (PK) profile, and preliminary antitumor activity of pamiparib and confirmed the RP2D in Chinese patients (Figure 1). The phase 2 dose‐expansion component of this study is investigating the single‐agent antitumor activity and safety/tolerability of pamiparib.
In phase 1, patients received pamiparib at 20, 40, and 60 mg BID dose levels. The starting dose for pamiparib (20 mg BID) was selected as one‐third of the RP2D (60 mg BID) and one‐fourth of the MTD (80 mg BID), which were determined in the FIH study. […] Safety evaluations, including dose‐limiting toxicities (DLTs), of ≥3 patients completing one cycle of treatment at a specific dose level were required before proceeding to the next cohort with a higher dose level. Patients could continue the study treatment in 21‐day cycles and subsequent cycles at the discretion of the investigator.
The primary objective in phase 1 was to evaluate the safety and tolerability of pamiparib. Safety and tolerability endpoint assessments were based on monitoring of treatment‐emergent adverse events (AEs), in addition to vital signs, electrocardiograms, physical examinations, and clinical laboratory results. The incidence and severity of all AEs and incidence of serious AEs were assessed according to the National Cancer Institute‐Common Terminology Criteria for Adverse Events v4.03.
Approximately 14 to 18 evaluable patients were expected to enroll in the phase 1 part of the study. The safety population included all patients who received ≥1 dose of pamiparib. The PK population included all patients for whom valid pamiparib PK parameters could be estimated. Antitumor activity per RECIST v1.1 was assessed in all evaluable patients. Patients were considered response evaluable if they had measurable disease at baseline per RECIST v1.1 and had ≥1 post‐baseline tumor assessment, unless treatment had been discontinued due to clinical progression or death prior to tumor assessment. The population evaluable for CA‐125 response included patients in the safety population with baseline CA‐125 ≥2 x upper limit of normal.

Structure (SMILES): C[C@]12CCCN1CC1=NNC(=O)c3cc(F)cc4[nH]c2c1c34 [pamiparib, Pamiparib]
- Treatment-related adverse event Decreased white blood cell count, Grade ≥3 (60 mg BID (n = 7)): 2 (28.6) n (%)
- Treatment-related adverse event Diarrhea, All Grades (60 mg BID (n = 7)): 2 (28.6) n (%)
- Treatment-related adverse event Diarrhea, Grade ≥3 (60 mg BID (n = 7)): 0 n (%)
- Treatment-related adverse event Increased GGT, All Grades (60 mg BID (n = 7)): 1 (14.3) n (%)
- Treatment-related adverse event Increased GGT, Grade ≥3 (60 mg BID (n = 7)): 0 n (%)
- Treatment-related adverse event Increased conjugated bilirubin, All Grades (60 mg BID (n = 7)): 2 (28.6) n (%)
- Treatment-related adverse event Increased conjugated bilirubin, Grade ≥3 (60 mg BID (n = 7)): 0 n (%)
- Treatment-related adverse event Nausea, All Grades (60 mg BID (n = 7)): 5 (71.4) n (%)
- Treatment-related adverse event Nausea, Grade ≥3 (60 mg BID (n = 7)): 1 (14.3) n (%)
- Treatment-related adverse event Prolonged electrocardiogram QT, All Grades (60 mg BID (n = 7)): 2 (28.6) n (%)
- Treatment-related adverse event Prolonged electrocardiogram QT, Grade ≥3 (60 mg BID (n = 7)): 0 n (%)
- Treatment-related adverse event Somnolence, All Grades (60 mg BID (n = 7)): 1 (14.3) n (%)
- Treatment-related adverse event Somnolence, Grade ≥3 (60 mg BID (n = 7)): 0 n (%)
- Treatment-related adverse event Tachycardia, All Grades (60 mg BID (n = 7)): 2 (28.6) n (%)
- Treatment-related adverse event Tachycardia, Grade ≥3 (60 mg BID (n = 7)): 0 n (%)
- Treatment-related adverse event Vomiting, All Grades (60 mg BID (n = 7)): 2 (28.6) n (%)
- Treatment-related adverse event Vomiting, Grade ≥3 (60 mg BID (n = 7)): 1 (14.3) n (%)
- Discontinued treatment: Adverse event (60 mg BID (n=7), count (percent)): 2 (28.6)
- Tolerability (20 to 60 mg BID, Chinese patients): generally well tolerated
- Grade 3 TRAE: anemia (N = 15): 2 n
- Grade 4 or 5 TRAEs (N = 15): No grade 4 or 5 TRAEs
- Grade ≥4 AEs (N = 15): no grade ≥4 AEs
- Patients who experienced a serious AE (N = 15): three
- Patients who experienced ≥1 AE considered related to pamiparib (N = 15): 100%
- Serious AE: abdominal infection (N = 15): 1 n
- Serious AE: intestinal obstruction (N = 15): 1 n
- Serious AE: pleural effusion (N = 15): 1 n
- Serious AEs considered related to study treatment (N = 15): none and no DLTs or serious AEs considered related to pamiparib
- Patients who experienced grade ≥3 AEs (N = 15 (10 patients), all causality): 67%
- Patients who experienced ≥1 TRAE of grade 3 severity (N = 15 (six patients)): 40%
- AE of any grade: asthenia (N = 15, all causality): 80%
- AE of any grade: decreased appetite (N = 15, all causality): 60%
- AE of any grade: decreased white blood cell count (N = 15, all causality): 67%
- AE of any grade: nausea (N = 15, all causality): 80%
- Grade ≥3 AE: anemia (N = 15, all causality): 27%
- Grade ≥3 AE: decreased hemoglobin (N = 15, all causality): 20%
- Patients who experienced ≥1 AE of any grade (N = 15, all causality): 15 patients
- Treatment-related AE: asthenia (N = 15, any grade): 80%
- Treatment-related AE: nausea (N = 15, any grade): 80%
- Recommended phase 2 dose (RP2D) confirmed in Chinese patients (PO): 60 mg BID
- Treatment-related adverse event Asthenia, All Grades (Total (N = 15)): 12 n (%) and 12 (80.0) n (%)
- Treatment-related adverse event Asthenia, Grade ≥3 (Total (N = 15)): 0 n (%)
- Treatment-related adverse event Decreased appetite, All Grades (Total (N = 15)): 9 (60.0) n (%)
- Treatment-related adverse event Decreased appetite, Grade ≥3 (Total (N = 15)): 0 n (%)
- Treatment-related adverse event Decreased hemoglobin, All Grades (Total (N = 15)): 6 (40.0) n (%)
- Treatment-related adverse event Decreased hemoglobin, Grade ≥3 (Total (N = 15)): 3 n (%) and 3 (20) n (%)
- Treatment-related adverse event Decreased neutrophil count, All Grades (Total (N = 15)): 8 (53.3) n (%)
- Treatment-related adverse event Decreased neutrophil count, Grade ≥3 (Total (N = 15)): 2 n (%) and 2 (13) n (%)
- Treatment-related adverse event Decreased platelet count, All Grades (Total (N = 15)): 3 (20.0) n (%)
- Treatment-related adverse event Decreased platelet count, Grade ≥3 (Total (N = 15)): 1 n (%) and 1 (7) n (%)
- Treatment-related adverse event Decreased white blood cell count, All Grades (Total (N = 15)): 10 (66.7) n (%)
- Treatment-related adverse event Decreased white blood cell count, Grade ≥3 (Total (N = 15)): 2 n (%) and 2 (13) n (%)
- Treatment-related adverse event Diarrhea, All Grades (Total (N = 15)): 3 (20.0) n (%)
- Treatment-related adverse event Diarrhea, Grade ≥3 (Total (N = 15)): 0 n (%)
- Treatment-related adverse event Increased GGT, All Grades (Total (N = 15)): 3 (20.0) n (%)
- Treatment-related adverse event Increased GGT, Grade ≥3 (Total (N = 15)): 0 n (%)
- Treatment-related adverse event Increased conjugated bilirubin, All Grades (Total (N = 15)): 4 (26.7) n (%)
- Treatment-related adverse event Increased conjugated bilirubin, Grade ≥3 (Total (N = 15)): 0 n (%)
- Treatment-related adverse event Nausea, All Grades (Total (N = 15)): 12 n (%) and 12 (80.0) n (%)
- Treatment-related adverse event Nausea, Grade ≥3 (Total (N = 15)): 1 n (%) and 1 (7) n (%)
- Treatment-related adverse event Prolonged electrocardiogram QT, All Grades (Total (N = 15)): 4 (26.7) n (%)
- Treatment-related adverse event Prolonged electrocardiogram QT, Grade ≥3 (Total (N = 15)): 1 n (%) and 1 (7) n (%)
- Treatment-related adverse event Somnolence, All Grades (Total (N = 15)): 3 (20.0) n (%)
- Treatment-related adverse event Somnolence, Grade ≥3 (Total (N = 15)): 0 n (%)
- Treatment-related adverse event Tachycardia, All Grades (Total (N = 15)): 3 (20.0) n (%)
- Treatment-related adverse event Tachycardia, Grade ≥3 (Total (N = 15)): 0 n (%)
- Treatment-related adverse event Vomiting, All Grades (Total (N = 15)): 4 (26.7) n (%)
- Treatment-related adverse event Vomiting, Grade ≥3 (Total (N = 15)): 1 n (%) and 1 (7) n (%)
- Dose-limiting toxicities (DLTs) (pamiparib dose range 20-60 mg BID, 23-day initial cycle): No dose‐limiting toxicities; also recorded: no DLTs
